{"source": "patent US9062125B2", "about": "“Use of GIP for the treatment of disorders associated with dysfunctional synaptic transmission” (Innovation Ulster Limited, priority 2007, dated 2015)", "parameters_in_all_cases": "species or system rat", "key": {"Male Wistar rats [1]": {"test_system": "Male Wistar rats", "assay": "In vivo LTP in hippocampal CA1 (field EPSP slope), weak HFS protocol, icv injection", "conditions": "15 nmol icv, LTP induced 30 min post-injection, n=6", "source_text": "(§1) Male Wistar rats weighing 220-280 g were anaesthetised with urethane (ethyl carbamate, 1.8 g/kg, i.p.) for the duration of all experiments. The animals had been obtained from Harlan, United Kingdom (UK).\n(§2) A cannula (22 gauge, 0.7 mm outer diameter, 11 mm in length, Bilaney, Kent, UK) was implanted (1.5 mm anterior to bregma, 0.5 mm lateral to the midline and 3.55 mm ventral) into the left hemisphere for intracerebroventricular (icv) injections. Electrodes (tungsten with Teflon coating, Bilaney, Kent, UK) were implanted unilaterally 3.4 mm posterior and 2.5 mm lateral to the midline, and the stimulating electrode 4.2 mm posterior to bregma and 3.8 mm lateral to the midline. […] Recordings of EPSPs were made from the stratum radiatum in the CA1 region of the right hippocampal hemisphere in response to stimulation of the Schaffer collateral/commissural pathway.\n(§3) Field EPSPs were recorded on a computerised stimulating and recording unit (PowerLab, ADI instruments, UK) in which the trigger threshold was adjustable. The triggered unit activated a constant current stimulus isolation unit (Neurolog, UK). The data acquisition system was triggered simultaneously to record all events. Sampling speed was at 20 kHz recording of EPSPs.\n(§4) The ‘strong’ high frequency stimulation (HFS) protocol for inducing LTP consisted of 3 trains of 200 stimuli, inter-stimulus interval 5 ms (200 Hz), inter-train interval 2 sec. […] The ‘weak’ HFS protocol for inducing LTP consisted of 10 trains of 10 stimuli, inter-stimulus interval 5 ms (200 Hz). The strong HFS was used to test the effects of peptides that impair LTP (beta-amyloid), and the weak HFS was used to test peptides that facilitate LTP. In this form of LTP, the control group is not potentiated at a maximal rate, and LTP can decay slowly over time.\n(§5) Stimulation intensity was 70% of the maximum EPSP. LTP was measured as a % of baseline EPSP slope recorded over a 30 min period prior to drug injection and 60 min prior to application of HFS. Baseline was recorded for 30 min and averaged. This value was taken as 100% of the EPSP slope and all recoded values were normalised to this baseline value.\nBeta-amyloid(25-35) and other peptides used in this study were synthetised on an Applied Biosystems automated peptides synthesiser (Model 432A) using standard solid-phase Fmoc protocols. Peptides were judged pure by reversed phase HPLC on a Waters Millennium 2010 chromatography system, and peptides were subsequently characterised using matrix-assisted laser desorption/ionisation time of flight (MALDI-TOF) mass spectrometry as described previously (Gengler et al., 2006; Hölscher et al., 2007). Peptides were stored in dry form and dissolved in double distilled water before the experiments. 5 μl of peptide solution was injected icv.\n(§6) Each group consisted of 6 animals. Data were analysed using a repeated measures two-way ANOVA, or a repeated measures three level two-way ANOVA with post-hoc tests to discriminate between groups (PRISM, GraphPad software Inc, USA)."}, "Male Wistar rats [2]": {"test_system": "Male Wistar rats", "assay": "In vivo LTP in hippocampal CA1 (field EPSP slope), strong HFS protocol, icv injection", "source_text": "as §1, §2, §3, §4, §5\nBeta-amyloid(25-35) and other peptides used in this study were synthetised on an Applied Biosystems automated peptides synthesiser (Model 432A) using standard solid-phase Fmoc protocols. […]\nas §6"}, "Male Wistar rats [3]": {"test_system": "Male Wistar rats", "assay": "In vivo prevention of beta-amyloid(25-35)-induced impairment of LTP in hippocampal CA1", "conditions": "n=6, FIG. 5", "source_text": "as §1\nA cannula (22 gauge, 0.7 mm outer diameter, 11 mm in length, Bilaney, Kent, UK) was implanted (1.5 mm anterior to bregma, 0.5 mm lateral to the midline and 3.55 mm ventral) into the left hemisphere for intracerebroventricular (icv) injections. Electrodes (tungsten with Teflon coating, Bilaney, Kent, UK) were implanted unilaterally 3.4 mm posterior and 2.5 mm lateral to the midline, and the stimulating electrode 4.2 mm posterior to bregma and 3.8 mm lateral to the midline. […]\nField EPSPs were recorded on a computerised stimulating and recording unit (PowerLab, ADI instruments, UK) in which the trigger threshold was adjustable. […]\nStimulation intensity was 70% of the maximum EPSP. LTP was measured as a % of baseline EPSP slope recorded over a 30 min period prior to drug injection and 60 min prior to application of HFS. Baseline was recorded for 30 min and averaged. […]\nEach group consisted of 6 animals. Data were analysed using a repeated measures two-way ANOVA, or a repeated measures three level two-way ANOVA with post-hoc tests to discriminate between groups (PRISM, GraphPad software Inc, USA). […]"}, "[4]": {"conditions": "15 nmol icv, LTP induced 30 min post-injection, n=6"}}, "note": "Non-standard residues stand in square brackets, D forms with d. No end group written: not given here. *: point of attachment. mPEG = mini-PEG HO—(CH2—O—CH2)n—H, n about 3; Myristoyl = CCCCCCCCCCCCCC(=O)*"}
{"substance": "GIP[Lys(37)Myristic acid]: GIP analogue created by Myristic acid addition at an epsilon amino group of Lys(37) (YAEGTFISDYSIAMDKIHQQDFVNWLLAQKGKKNDWK(Myristoyl)HNITQ; UniProt P09681 52-93, looked up)", "values": [{"measurement": "effect on long-term potentiation (LTP; change in EPSP) compared with control", "setting": "Male Wistar rats [1]", "result": "enhanced long-term potentiation (LTP) compared with control"}]}
{"substance": "GIP[mPEG]: C-terminal mini-PEGylated human GIP(1-42), polymer moiety HO—(CH2—O—CH2)n—H, n about 3 (YAEGTFISDYSIAMDKIHQQDFVNWLLAQKGKKNDWKHNITQ-mPEG; UniProt P09681 52-93, looked up)", "values": [{"measurement": "effect on long-term potentiation (LTP; change in EPSP) compared with control", "setting": "Male Wistar rats [1]", "result": "enhanced long-term potentiation (LTP) compared with control"}]}
{"substance": "GIP: Human gastric inhibitory polypeptide, full length 42 amino acid peptide, SEQ ID NO: 1 (YAEGTFISDYSIAMDKIHQQDFVNWLLAQKGKKNDWKHNITQ; listed as Homo sapiens)", "values": [{"measurement": "effect on long-term potentiation (LTP; change in EPSP) compared with control", "setting": "Male Wistar rats [1]", "result": "increased long-term potentiation (LTP) compared with control"}]}
{"substance": "D-Ala(2)GIP: human GIP(1-42) in which L-Ala at position 2 has been replaced with D-Ala (Y[dA]EGTFISDYSIAMDKIHQQDFVNWLLAQKGKKNDWKHNITQ)", "values": [{"measurement": "effect on long-term potentiation (LTP; change in EPSP) compared with control", "setting": "Male Wistar rats [1]", "result": "enhanced long-term potentiation (LTP) compared with control"}]}
{"substance": "Ala(1)GIP: human GIP(1-42) in which Tyr at position 1 has been replaced with L-Ala (AAEGTFISDYSIAMDKIHQQDFVNWLLAQKGKKNDWKHNITQ; Synthetic analogue derived from human GIP(1-42))", "values": [{"measurement": "effect on long-term potentiation (LTP; change in EPSP) compared with control", "setting": "Male Wistar rats [2]; [4]", "result": "attenuated long-term potentiation (LTP) compared with control"}]}
{"substance": "βA(25-35): beta-amyloid fragment 25-35, synthesised peptide used to impair LTP (GSNKGAIIGLM; Amyloid-beta protein 42; UniProt P05067 696-706, looked up, fragment) [reference compound]", "values": [{"measurement": "effect on long-term potentiation (LTP; change in EPSP) compared with control", "setting": "Male Wistar rats [2]; 10 nmol icv, LTP induced 15 min post-injection, p<0.01, n=6, FIG. 2", "result": "impaired long-term potentiation (LTP) compared with control"}, {"measurement": "effect on long-term potentiation (LTP; change in EPSP) compared with control", "setting": "Male Wistar rats [2]; 100 nmol icv, LTP induced 15 min post-injection, p<0.005, n=6, FIG. 2", "result": "LTP development was also impaired"}, {"measurement": "effect on LTP compared with control (Example 5 experiment)", "setting": "Male Wistar rats [3]; 100 nmol icv alone, LTP induced 15 min post-injection, p<0.001", "result": "difference between the βA(25-35) group and control"}]}
{"substance": "N-AcGIP: N-terminally acetylated human GIP(1-42)", "values": [{"measurement": "effect on long-term potentiation (LTP; change in EPSP) compared with control", "setting": "Male Wistar rats [1]", "result": "enhanced long-term potentiation (LTP) compared with control"}, {"measurement": "effect on βA(25-35)-induced impairment of LTP", "setting": "Male Wistar rats [3]; 15 nmol icv, 100 nmol βA(25-35) injected 30 min later, LTP induced 15 min post-βA injection, p<0.001 vs βA group", "result": "attenuated the βA(25-35)-induced impairment of LTP"}]}
{"substance": "Pro(3)GIP: human GIP(1-42) in which Glu at position 3 has been replaced with L-Pro (YAPGTFISDYSIAMDKIHQQDFVNWLLAQKGKKNDWKHNITQ; Synthetic analogue derived from human GIP(1-42))", "values": [{"measurement": "effect on long-term potentiation (LTP; change in EPSP) compared with control", "setting": "Male Wistar rats [2]; [4]", "result": "attenuated long-term potentiation (LTP) compared with control"}]}
